“Also recorded” adds a separate entry of the source.
Key:
Male NIH Swiss mice = assay: Forced swim test; type: in vivo; details: 10 and 30 mg/kg i.p.
Procedure: FIG. 16 is a graph of immobility illustrating the antidepressant effects of KRM-II-81 assessed in the forced swim test. Male NIH Swiss mice (n=7-8) were dosed i.p. with vehicle (1% HEC, 0.25% Tween 80, 0.05% antifoam), KRM-II-81 (3, 10, or 30 mg/kg), or imipramine (15 mg/kg) and assessed in the forced swim test. Results were analyzed using ANOVA (Dunnett's test *P<0.05).
The forced swim test is used as a primary screen for the antidepressant nature of a test compound. Mice are placed in a cylinder filled with a small amount of water. Mice that are more mobile after a dosing of a compound are determined to be less depressed.
The experiment was carried out as described by Porsolt et al. (Arch. Int. Pharmacodyn. Ther. 1977, 229, 327-366). Male NIH Swiss mice (n=7-8) were dosed i.p. with vehicle (1% HEC, 0.25% Tween 80, 0.05% antifoam), KRM-II-81 (3, 10, or 30 mg/kg), or imipramine (15 mg/kg) and assessed in the forced swim test. Mice were placed individually in clear plastic cylinders (10 cm in diameter×25 cm in height) filled to 6 cm with 22-25° C. water for 6 minutes. The duration of immobility was recorded during the last 4 minutes of a 6-minute trial. A mouse was regarded as immobile when floating motionless or making only those movements necessary to keep its head above the water.

Male CD-1 mice = assay: Maximal electroshock (MES)-induced convulsion protection; type: in vivo; details: i.p. 30 minutes prior to test
Procedure: Male CD-1 mice (n=10) were dosed i.p. 30 minutes prior to being tested. Results were analyzed using ANOVA (Dunnett's test versus vehicle: *P<0.05).
The maximal electroshock (MES) assay is designed to determine how well a test compound can prevent seizures induced by applying a voltage stimuli to a mouse.
Mice were subjected to electrical induced tonic seizures and examined for anticonvulsant effects 30 minutes after treatment. Mice were then given a 7 mA electroshock using a Wahlquist Model H for 0.2 seconds and observed for the presence or absence of seizure activity. Each mouse is tested only once and euthanized immediately following the test.

CYP3A4 = CYP3A4 (Homo sapiens, UniProt P08684); assay: CYP substrate assessment, CYP3A4
CYP3A4, sequence (P08684 whole entry): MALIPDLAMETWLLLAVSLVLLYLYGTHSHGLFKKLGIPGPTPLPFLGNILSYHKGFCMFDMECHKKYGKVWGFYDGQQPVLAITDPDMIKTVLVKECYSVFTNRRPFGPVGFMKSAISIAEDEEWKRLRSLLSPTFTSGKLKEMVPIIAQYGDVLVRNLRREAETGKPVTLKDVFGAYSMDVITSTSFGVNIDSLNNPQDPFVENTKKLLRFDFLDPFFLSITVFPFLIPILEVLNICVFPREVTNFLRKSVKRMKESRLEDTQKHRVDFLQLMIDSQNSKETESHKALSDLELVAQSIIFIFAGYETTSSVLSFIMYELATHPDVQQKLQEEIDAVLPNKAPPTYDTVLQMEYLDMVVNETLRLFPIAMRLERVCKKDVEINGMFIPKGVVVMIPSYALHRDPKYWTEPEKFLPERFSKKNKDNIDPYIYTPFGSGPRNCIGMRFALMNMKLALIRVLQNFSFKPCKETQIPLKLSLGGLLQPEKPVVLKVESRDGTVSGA

Male Sprague-Dawley rats = assay: Vogel conflict procedure; type: in vivo; details: i.p. 30 minutes prior; KRM-II-81 significant at 10 mg/kg; chlordiazepoxide 20 mg/kg
Procedure: FIG. 10 is a graph of the concentration of KRM-II-81 versus percent of control for KRM-II-81 analyzed in the Vogel conflict procedure. After a baseline was established using a vehicle (1% 2-hydroxyethyl cellulose), male Sprague-Dawley rats (n=6-8) were dosed i.p. with either KRM-II-81 (3, 10, 30, or 60 mg/kg) or chlordiazepoxide (20 mg/kg) 30 minutes prior to testing. Results were analyzed using ANOVA (Dunnett's test: *P<0.05; Student t-test: **P<0.05).
Subjects are withheld from water prior to testing. Once given water during testing, they will either be unpunished, where they are free to drink without consequence, or punished, where a small electrical shock is applied after every 20th lick. In vehicle punished, is it is expected that the rats hesitate from drinking due to the anxiousness of being shocked. When given an anxiolytic, the […] will continue to drink water despite the electrical shock.
Experiments were conducted as described in the protocol of Alt et al. (Neuropharmacology 2007, 52, 1482-1487). […]
Apparatus. […] All events were controlled and licking data was recorded by a Compaq computer running MED-PC Version IV (Med Associates Inc., Georgia, Vt., USA).
Sipper tube training. […] The six minutes was broken into two components, the first three minutes was recorded as the unpunished component and the second three minutes were recorded as the punished component. […]

C#Cc1ccc2c(c1)C(c1ccccn1)=NCc1c(-c3cnco3)ncn1-2 [KRM-II-81, 5-(8-Ethynyl-6-(pyridin-2-yl)-4H-benzo[f]imidazo[1,5-a][1,4]diazepin-3-yl)oxazole]
antidepressant effects (immobility) (Male NIH Swiss mice): demonstrated antidepressant effects
protection against MES-induced seizures (Male CD-1 mice): greater effectiveness than HZ-166; also recorded: fully protected against seizure induction
substrate of CYP3A4 (CYP3A4): not found to be a substrate
punished licking compared to control (Male Sprague-Dawley rats): significant increase in punished licking

Source: US10259815B2, “Gabaergic ligands and their uses” (UWM Research Foundation, Inc., priority 2015, dated 2019)
